11 substances from patent US8076285B2, “Lysobactin amides” (Aicuris GmbH & Co. KG, priority 2006, dated 2011) can be followed below.

The conditions of one series: amide bond; 28-membered ring.
In turn, “[(3R)-N^2-(Benzyloxycarbonyl)-3-amino-3-(pyridin-3-yl)-L-alanyl]-[(3R)-3-hydroxy-L-leucyl]-L-leucyl-D-arginyl-L-isoleucyl-L-allothreonyl-glycyl-[(3R)-3-hydroxy-L-asparaginyl]-L-serine C^1.9-N^3.1-lactam bis-trifluoroacetate” displayed a ring closure, isolated yield of 61%.
Still for that read-out and setting: the value for “[(3R)-N^2-(Benzyloxycarbonyl)-3-amino-L-leucyl]-[(3R)-3-hydroxy-L-leucyl]-L-leucyl-D-arginyl-L isoleucyl-L-allothreonyl-glycyl-[(3R)-3-hydroxy-L-asparaginyl]-L-serine C^1.9-N^3.1-lactam trifluoroacetate” was 53%; that for “[(3R)-N^2-(Benzyloxycarbonyl)-3-amino-L-phenylalanyl]-L-threonyl-L-leucyl-D-arginyl-L-isoleucyl-L-allothreonyl-glycyl-L-seryl C^1.9-N^3.1-lactam trifluoroacetate” was 73%; that for “[(3R)-N^2-(Benzyloxycarbonyl)-3-amino-L-phenylalanyl]-[(3R)-3-hydroxy-L-leucyl]-(3-trimethylsilyl-L-alanyl)-D-arginyl-L-isoleucyl-L-allothreonyl-glycyl-L-seryl-L-serine C^1.9-N^3.1-lactam trifluoroacetate” was 98%.
Still for that read-out and setting: the value for “[(3R)-N^2-(Benzyloxycarbonyl)-3-amino-L-phenylalanyl]-[(3R)-3-hydroxy-L-leucyl]-L-isoleucyl-D-arginyl-L-isoleucyl-L-allothreonyl-glycyl-L-seryl-L-serine C^1.9-N^3.1-lactam trifluoroacetate” was 62%.
Regarding “[(3R)-N^2-(Benzyloxycarbonyl)-3-amino-L-phenylalanyl]-[(3R)-3-hydroxy-L-leucyl]-L-leucyl-D-arginyl-L-isoleucyl-L-allothreonyl-D-alanyl-[(3S)-3-hydroxy-L-asparaginyl]-L-serine C^1.9-N^3.1-lactam trifluoroacetate”, the ring closure, isolated yield was 48%.
The substance “[(3R)-N^2-(Benzyloxycarbonyl)-3-amino-L-phenylalanyl]-[(3R)-3-hydroxy-L-leucyl]-L-leucyl-D-arginyl-L-isoleucyl-L-allothreonyl-D-seryl-L-seryl-L-serine C^1.9-N^3.1-lactam trifluoroacetate” came in with a ring closure, isolated yield of 93%.

Still in this series, the particulars now being: amide bond; 28-membered ring; HATU/NMM; DMF; 0.0 °C.
With “N^2.1-(Benzyloxycarbonyl)-[(3R)-3-amino-O-methyl-L-tyrosyl)]-[(3R)-3-hydroxy-L-leucyl]-L-leucyl-D-arginyl-L-isoleucyl-L-allothreonyl-glycyl-[(3S)-3-hydroxy-L-asparaginyl]-L-serine C^1.9-N^3.1-lactam trifluoroacetate”, the ring closure, isolated yield turned out to be 33%.
On the same count and under the same terms, the value for “[(3R)-N^2-(Benzyloxycarbonyl)-3-amino-L-phenylalanyl]-[(3R)-3-hydroxy-L-leucyl]-L-leucyl-D-arginyl-L-isoleucyl-L-allothreonyl-glycyl-L-alanyl-L-serine C^1.9-N^3.1-lactam trifluoroacetate” was 77%; that for “[(3R)-N^2-(Benzyloxycarbonyl)-3-amino-L-phenylalanyl]-[(3R)-3-hydroxy-L-leucyl]-L-leucyl-D-arginyl-L-isoleucyl-L-allothreonyl-glycyl-L-asparaginyl-L-serine C^1.9-N^3.1-lactam trifluoroacetate” was 75%.

The same series, now with this note: amide bond; 28-membered ring; HATU/NMM; DMF; 7.5 mM; 0.0 °C.
For the substance “N^2.1-(Benzyloxycarbonyl)-[(3S)-3-amino-O-methyl-D-tyrosyl)]-[(3R)-3-hydroxy-L-leucyl]-L-leucyl-D-arginyl-L-isoleucyl-L-allothreonyl-glycyl-[(3S)-3-hydroxy-L-asparaginyl]-L-serine C^1.9-N^3.1-lactam trifluoroacetate”, the ring closure, isolated yield came out at 96%.
